Values quoted from earlier work, collected in patent US6958144B2, “Methods of whitening teeth” (Britesmile Development, Inc., priority 1995, dated 2005).

Details: 10% carbamide peroxide solution, background statement

- equilibrium pH: approximately 3.45
Structure (SMILES): NC(N)=O.OO [carbamide peroxide]
